For experiment [1], the system named is Caenorhabditis elegans. Kind of experiment: Antiparasitic activity against Caenorhabditis elegans, 96 well microplate (MIC). It counts as in vivo. The settings on record: 20° C., observed after 24 and 48 hours. From the text: (§1) As model insects for simple determination of antiparasitic and insecticidal activities, those insects are desired which can be easily obtained and bred in laboratories, and have no pathogenicity to a human. Caenorhabditis elegans, an unparasitic eelworm widely used in experiments of genetics, was used as a typical steam worm, and Artemia salina used as feed for tropical fish and named Brine shrimp, was used instead of insects.
Escherichia. coli for the feed of Caenorhabditis elegans (mutant having uracil requirement) was inoculated in a seed medium for E. coli to which a small amount of uracil was added, and cultured with shaking at 27° C. for 1 day. A petri dish of 6 cm diameter was filled with 10 ml of an agar medium for eelworm proliferation, and the medium was solidified. Then 0.5 ml of the culture of E. coli was spread over the medium in the dish, and the dish was incubated at 37° C. to proliferate E. coli. A piece of the agar was collected with a platinum loop from a petri dish in which Caenorhabditis elegans successfully proliferated, and inoculated in petri dishes in which E. coli was proliferated. The petri dishes were incubated at 20° C. to proliferate Caenorhabditis elegans. Since the life of eelworm is about 2 weeks, subculture was carried out every once a week. The eelworms grown with spread on the surface of the petri dish after 3 to 5 days from subculture were used for the experiments.
The agar medium for eelworm proliferation was prepared by mixing the solutions in the following proportion: Solution A: 100 ml, Solution B: 0.1 ml, Solution C: 0.05 ml, Solution D: 0.1 ml and Solution E: 2.5 ml (without pH adjustment), and dispensing each 10 ml portion into petri dishes of 60×15 mm.
In distilled water, 2.0% of bact-trypton (DIFCO Co.), 0.55% of sodium chloride and 0.001% of uracil (SIGMA Co., pH 7.4) were dissolved, and the solution was sterilized in an autoclave at 121° C. for 20 minutes.
(§2) Each well of a 96 well microplate was filled with the solution of the test compound (methanol as a solvent), and the solvent was removed using a vacuum pump, then 250 μl of the assay medium was added to each wells (the assay medium was prepared by dissolving 7.5 mM sodium hydrogencarbonate, 7.5 mM potassium chloride, 7.5 mM calcium chloride dihydrate and 7.5 mM magnesium sulfate heptahydrate in distilled water and adding 0.01% of lecithin thereto), and then the microplate was shaken using a microplate mixer for 15 minutes. To each well, a few individuals of Caenorhabditis elegans were added by softly rubbing the surface of the agar using a toothpick, or a few individuals of Artemia salina were added together with 50 μl of the buffer. The microplate was incubated at 20° C., and then the insects were observed after 24 and 48 hours under a microscope (magnification of 40×). The results were compared to those obtained without addition of the test compound, and evaluated by 4 grades.
(§3) The evaluation results were shown by indications of 4 grades from 0 to 3.
(§4) 1: A little week movements
(§5) Of the 4 grades, Indications 3 and 2 were judged as effective, and Indications 1 and 0 as ineffective. In Table 9, the values for each compound are minimum inhibitory concentrations (MIC) which were required to give Indication 2 (or 3) for Caenorhabditis elegans or Artemia salina. In Table 9, Caenorhabditis elegans and Artemia salina are abbreviated as C.E. and A.S., respectively.

For experiment [2], the system named is Artemia salina. Kind of experiment: Insecticidal model activity against Artemia salina (brine shrimp), 96 well microplate (MIC). The conditions noted are these: 20° C., observed after 24 and 48 hours. It counts as in vivo.
Excerpt: as §1
To a buffer for Artemia salina (obtained by dissolving 0.24% of Tris, 2.57% of sodium chloride, 0.47% of magnesium chloride, 0.07% of potassium chloride, 0.02% of sodium carbonate, 0.64% of magnesium sulfate and 0.11% of calcium chloride in distilled water and adjusting the pH to 7.1 with hydrochloric acid), dried eggs of Artemia salina [Tetra Brine Shrimp Eggs, Warner Lambert Co.] were added. The noprius larvae 1 or 2 days after hatching were used for the experiments.
as §2, §3, §4, §5

As to `CCC(C)C1OC2(C=CC1C)CC1CC(CC=C(C)C(OC3CC(OC)C(OC4CC(OC)C(=CCN)C(C)O4)C(C)O3)C(C)C=CC=C3COC4C(O[Si](C)(C)C(C)(C)C)C(C)=CC(C(=O)O1)C34O)O2` (stereo not shown) [Compound 14], the “C.E. minimum inhibitory concentration (MIC) required to give Indication 2 (or 3)” value (from here on “C.E. minimum inhibitory concentration”) in experiment [1] stood at 100 µg/mL. Also, the “A.S. minimum inhibitory concentration (MIC) required to give Indication 2 (or 3)” value (“A.S. minimum inhibitory concentration” below) in experiment [2] came to 5 µg/mL.

As for `CCC(C)C1OC2(C=CC1C)CC1CC(CC=C(C)C(OC3CC(OC)C(OC4CC(OC)C(=CC=NO)C(C)O4)C(C)O3)C(C)C=CC=C3COC4C(O)C(C)=CC(C(=O)O1)C34O)O2` (single isomer, unassigned) [Compound 10], the “C.E. minimum inhibitory concentration” value in experiment [1] was determined as 0.01 µg/mL. For the same molecule, in experiment [2], the “A.S. minimum inhibitory concentration” value worked out at 0.002 µg/mL.

Take `CCC(C)C1OC2(C=CC1C)CC1CC(CC=C(C)C(OC3CC(OC)C(OC4CC(OC)C(=CCOC(=O)c5ccc(Cl)nc5)C(C)O4)C(C)O3)C(C)C=CC=C3COC4C(O)C(C)=CC(C(=O)O1)C34O)O2` (stereo not shown) [Compound 34]: the “C.E. minimum inhibitory concentration” value in experiment [1] stood at 0.002 µg/mL. Besides, the “A.S. minimum inhibitory concentration” value in experiment [2] was 0.002 µg/mL.

With `CCC(C)C1OC2(C=CC1C)CC1CC(CC=C(C)C(OC3CC(OC)C(OC4CC(OC)C(=CCO)C(C)O4)C(C)O3)C(C)C=CC=C3COC4C(O[Si](C)(C)C(C)(C)C)C(C)=CC(C(=O)O1)C34O)O2` (stereo not shown) [Compound 3], the “C.E. minimum inhibitory concentration” value in experiment [1] stood at 100 µg/mL. Moreover, the “A.S. minimum inhibitory concentration” value in experiment [2] was 20 µg/mL.

Consider `C=CCOC(=O)C=C1C(C)OC(OC2C(C)OC(OC3C(C)=CCC4CC(CC5(C=CC(C)C(C(C)CC)O5)O4)OC(=O)C4C=C(C)C(O)C5OCC(=CC=CC3C)C45O)CC2OC)CC1OC` (stereo not shown) [Compound 20], for which the “C.E. minimum inhibitory concentration” value in experiment [1] came to 0.01 µg/mL. Besides, in experiment [2], the “A.S. minimum inhibitory concentration” value amounted to 0.002 µg/mL.

Take `CCOC(=O)C=C1C(C)OC(OC2C(C)OC(OC3C(C)=CCC4CC(CC5(C=CC(C)C(C(C)CC)O5)O4)OC(=O)C4C=C(C)C(O[Si](C)(C)C(C)(C)C)C5OCC(=CC=CC3C)C45O)CC2OC)CC1OC` (stereo not shown) [Compound 1]: the “C.E. minimum inhibitory concentration” value in experiment [1] was 100 µg/mL. In addition, the “A.S. minimum inhibitory concentration” value in experiment [2] is 100 µg/mL.

Consider `CCC(C)C1OC2(C=CC1C)CC1CC(CC=C(C)C(OC3CC(OC)C(OC4CC(OC)C(=CC=NNC(N)=O)C(C)O4)C(C)O3)C(C)C=CC=C3COC4C(O)C(C)=CC(C(=O)O1)C34O)O2` (stereo not shown) [Compound 22], for which the “C.E. minimum inhibitory concentration” value in experiment [1] was found to be 0.01 µg/mL. Also, in experiment [2], the “A.S. minimum inhibitory concentration” value amounted to 0.0005 µg/mL.

As for `CCC(C)C1OC2(C=CC1C)CC1CC(CC=C(C)C(OC3CC(OC)C(OC4CC(OC)C(=CCOC(=O)c5ccncc5)C(C)O4)C(C)O3)C(C)C=CC=C3COC4C(O[Si](C)(C)C(C)(C)C)C(C)=CC(C(=O)O1)C34O)O2` (stereo not shown) [Compound 17], the “C.E. minimum inhibitory concentration” value in experiment [1] is 100 µg/mL. Also, the “A.S. minimum inhibitory concentration” value in experiment [2] came to 100 µg/mL.

Regarding `CCC(C)C1OC2(C=CC1C)CC1CC(CC=C(C)C(OC3CC(OC)C(OC4CC(OC)C(=CC=NO)C(C)O4)C(C)O3)C(C)C=CC=C3COC4C(O)C(C)=CC(C(=O)O1)C34O)O2` (single isomer, unassigned) [Compound 9], the “C.E. minimum inhibitory concentration” value in experiment [1] was found to be 0.01 µg/mL. Also, the “A.S. minimum inhibitory concentration” value in experiment [2] is 0.002 µg/mL.

As to `CCC(C)C1OC2(C=CC1C)CC1CC(CC=C(C)C(OC3CC(OC)C(OC4CC(OC)C(=CC=NOC)C(C)O4)C(C)O3)C(C)C=CC=C3COC4C(O)C(C)=CC(C(=O)O1)C34O)O2` (single isomer, unassigned) [Compound 13], the “C.E. minimum inhibitory concentration” value in experiment [1] came out at 0.01 µg/mL. Further, the “A.S. minimum inhibitory concentration” value in experiment [2] came out at 0.002 µg/mL.

Regarding `CCC(C)C1OC2(C=CC1C)CC1CC(CC=C(C)C(OC3CC(OC)C(OC4CC(OC)C(=CCOC(=O)C5CCCN5C(=O)OC(C)(C)C)C(C)O4)C(C)O3)C(C)C=CC=C3COC4C(O)C(C)=CC(C(=O)O1)C34O)O2` (stereo not shown) [Compound 30], the “C.E. minimum inhibitory concentration” value in experiment [1] turned out to be 0.05 µg/mL. Further, the “A.S. minimum inhibitory concentration” value in experiment [2] stood at 0.01 µg/mL.

Consider `CCC(C)C1OC2(C=CC1C)CC1CC(CC=C(C)C(OC3CC(OC)C(OC4CC(OC)C(=CC(=O)OC)C(C)O4)C(C)O3)C(C)C=CC=C3COC4C(O[Si](C)(C)C(C)(C)C)C(C)=CC(C(=O)O1)C34O)O2` (stereo not shown) [Compound 6], for which the “C.E. minimum inhibitory concentration” value in experiment [1] was >100 µg/mL. Further, the “A.S. minimum inhibitory concentration” value in experiment [2] is listed as “≧100 μg/ml”.

Regarding `CCC(C)C1OC2(CC(=O)C1C)CC1CC(CC=C(C)C(OC3CC(OC)C(OC4CC(OC)C(=CC(=O)OC)C(C)O4)C(C)O3)C(C)C=CC=C3COC4C(O)C(C)=CC(C(=O)O1)C34O)O2` (stereo not shown) [Compound 41], the “C.E. minimum inhibitory concentration” value in experiment [1] amounted to 0.01 µg/mL. The “A.S. minimum inhibitory concentration” value in experiment [2] was 0.01 µg/mL.

As for `CCC(C)C1OC2(C=CC1C)CC1CC(CC=C(C)C(OC3CC(OC)C(OC4CC(OC)C(=CC=O)C(C)O4)C(C)O3)C(C)C=CC=C3COC4C(O)C(C)=CC(C(=O)O1)C34O)O2` (stereo not shown) [Compound 8], the “C.E. minimum inhibitory concentration” value in experiment [1] was 0.01 µg/mL. Also, the “A.S. minimum inhibitory concentration” value in experiment [2] amounted to 0.01 µg/mL.

With `CCC(C)C1OC2(C=CC1C)CC1CC(CC=C(C)C(OC3CC(OC)C(OC4CC(OC)C(=CC=O)C(C)O4)C(C)O3)C(C)C=CC=C3COC4C(O[Si](C)(C)C(C)(C)C)C(C)=CC(C(=O)O1)C34O)O2` (stereo not shown) [Compound 5], the “C.E. minimum inhibitory concentration” value in experiment [1] turned out to be 100 µg/mL. For the same molecule, the “A.S. minimum inhibitory concentration” value in experiment [2] was determined as 100 µg/mL.

Consider `CCC(C)C1OC2(C=CC1C)CC1CC(CC=C(C)C(OC3CC(OC)C(OC4CC(OC)C(=CCNC)C(C)O4)C(C)O3)C(C)C=CC=C3COC4C(O)C(C)=CC(C(=O)O1)C34O)O2` (stereo not shown) [Compound 11], for which the “C.E. minimum inhibitory concentration” value in experiment [1] amounted to 0.05 µg/mL. Further, in experiment [2], the “A.S. minimum inhibitory concentration” value is 0.01 µg/mL.

For `CCC(C)C1OC2(C=CC1C)CC1CC(CC=C(C)C(OC3CC(OC)C(OC4CC(OC)C(=CC=NOC)C(C)O4)C(C)O3)C(C)C=CC=C3COC4C(O)C(C)=CC(C(=O)O1)C34O)O2` (single isomer, unassigned) [Compound 12], the “C.E. minimum inhibitory concentration” value in experiment [1] is 0.01 µg/mL. In addition, the “A.S. minimum inhibitory concentration” value in experiment [2] came out at 0.01 µg/mL.

The record behind these values is patent publication US6605595B1, “Avermectin derivatives” (The Kitasato Institute, priority 1999, dated 2003).
